Patent publication US8106048B2, “Heterocyclic NF-κB inhibitors” (4SC AG, priority 2004, dated 2012)

How the values were obtained:
TNF-α = conditions: mouse; cited from earlier work
NF-κB [1] = conditions: cited from earlier work
NF-κB [2] = conditions: cited from earlier work; remark: listed apart in the source
IκB-α = conditions: cited from earlier work
p65 subunit of NF-κB = conditions: cited from earlier work
20S and 26S proteasome = molecular target: T1, 20S and 26S proteasome (Homo sapiens, UniProt P28072+P28074+Q99436); conditions: cited from earlier work
T1 sequence (P28074 60-263): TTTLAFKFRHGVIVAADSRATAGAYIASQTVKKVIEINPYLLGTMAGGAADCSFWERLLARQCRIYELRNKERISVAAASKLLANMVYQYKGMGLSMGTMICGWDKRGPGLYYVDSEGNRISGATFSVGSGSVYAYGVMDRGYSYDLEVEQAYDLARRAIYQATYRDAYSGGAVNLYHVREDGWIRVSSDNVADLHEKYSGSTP
T1 sequence (P28072 1-239): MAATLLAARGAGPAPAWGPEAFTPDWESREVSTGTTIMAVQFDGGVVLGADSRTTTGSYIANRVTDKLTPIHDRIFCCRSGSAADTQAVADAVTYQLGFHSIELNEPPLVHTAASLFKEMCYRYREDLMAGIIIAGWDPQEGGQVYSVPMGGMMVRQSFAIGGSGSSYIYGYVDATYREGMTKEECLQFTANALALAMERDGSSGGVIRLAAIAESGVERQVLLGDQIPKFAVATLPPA
T1 sequence (Q99436 44-277): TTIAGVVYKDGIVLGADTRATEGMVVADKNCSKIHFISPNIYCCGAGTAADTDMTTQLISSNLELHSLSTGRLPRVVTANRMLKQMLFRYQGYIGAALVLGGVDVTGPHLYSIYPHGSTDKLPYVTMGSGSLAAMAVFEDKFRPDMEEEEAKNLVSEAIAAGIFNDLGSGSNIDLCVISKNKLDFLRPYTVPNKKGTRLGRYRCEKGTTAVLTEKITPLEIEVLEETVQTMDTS

[3] = tested on: A549-NF-κB-SEAP reporter cells; experiment: Inhibition of NF-κB-induced inflammation: […] NINA Instant Assay, TNF-α stimulated SEAP reporter; type: cell-based; conditions: % inhibition classes
Outline: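 A549 cells carrying an NF-κB-driven SEAP reporter were pretreated with compound (0.01–100 μM) for 4.5 h, then stimulated with 2 ng/ml TNF-α for 22 h. After inactivation of endogenous phosphatases, SEAP activity was read by CSPD chemiluminescence (40 min). EC50 values were fitted from quadruplicate data points.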

| SMILES | Biological activity (inhibition in the NF-κB inflammation assay) [3] | also measured |
| --- | --- | --- |
| S=C(S)N1CCCC1 [pyrrolidine dithiocarbamate] |  | lipopolysaccharide-induced TNF-α production (TNF-α): blocked lipopolysacharide-induced TNF-α production in mouse in a dose dependent manner; inhibition of NF-κB transcriptional activation (NF-κB [1]): inhibitors of NF-κB transcritional activation |
| CCN(CC)CCNC(=O)c1ccc(N)c(Cl)c1 [3-chloroprocainamide] |  | lipopolysaccharide-induced TNF-α production (TNF-α): blocked lipopolysacharide-induced TNF-α production in mouse in a dose dependent manner; inhibition of NF-κB transcriptional activation (NF-κB [1]): inhibitors of NF-κB transcritional activation |
| C=C1C(=O)O[C@@H]2C[C@H](C)[C@H]3C=CC(=O)[C@@]3(C)[C@@H](O)[C@H]12 [Helenalin] |  | NF-κB activation / activity (NF-κB [2]): inhibit NF-κB activity by selectively alkylating the cysteine residue of the p65 subunit of NF-κB; IκB degradation (IκB-α): did not inhibit; translocation of NF-κB to the nucleus (p65 subunit of NF-κB): did not inhibit |
| COc1cc(CNC(=O)CCCC/C=C/C(C)C)ccc1O [capsaicin] |  | NF-κB activation / activity (NF-κB [2]): blocked TNF-α and phorbol mediated NF-κB activation; IκB degradation (IκB-α): blocked degradation of IκB-α; translocation of NF-κB to the nucleus (p65 subunit of NF-κB): blocked |
| NC(=O)c1cccnc1 [nicotinamide] |  | lipopolysaccharide-induced TNF-α production (TNF-α): blocked lipopolysacharide-induced TNF-α production in mouse in a dose dependent manner |
| CC(=O)N[C@@H](CSC(=O)[C@]1([C@@H](O)C(C)C)NC(=O)[C@H](C)[C@@H]1O)C(=O)O [Lactacystin] |  | inhibition of 20S and 26S proteasome (20S and 26S proteasome): inhibits both, 20S and 26S proteasome; inhibitory activity on proteasome peptidase activities (20S and 26S proteasome; trypsin-like, chymotrypsin-like, peptidylglutamylpeptide hydrolyzing): inhibitory activity on trypsin-like, chymotrypsin-like and peptidylglutamylpeptide hydrolyzing activities |
| CC(=O)c1ccc(N2CCN(c3nc(C(=O)N4CCN(c5cccc(C(F)(F)F)c5)CC4)cs3)CC2)cc1 [compound 66] | ++ (“++” means 80-90%) |  |
| O=C(c1csc(C2CCN(Cc3ccccc3)CC2)n1)N1CCN(c2cccc(C(F)(F)F)c2)CC1 [compound 177] | + (“+” stands for 50-80% inhibition) |  |
| COc1cccc(NC(=O)N2CCC(c3nc(C(=O)N4CCN(c5cccc(C(F)(F)F)c5)CC4)cs3)CC2)c1 [compound 80] | + (“+” stands for 50-80% inhibition) |  |
| O=C(O)C1=C(C(=O)N2CCC(c3nc(C(=O)N4CCN(c5cccc(C(F)(F)F)c5)CC4)cs3)CC2)CCCC1 [compound 190] | + (“+” stands for 50-80% inhibition) |  |
| Cc1cc(NC(=O)N2CCC(c3nc(C(=O)N4CCN(c5cccc(C(F)(F)F)c5)CC4)cs3)CC2)c(C(F)(F)F)o1 [compound 76] | ++ (“++” means 80-90%) |  |
| O=C(c1csc(C2CCN(c3ccc4c(c3)OCO4)CC2)n1)N1CCN(c2cccc(C(F)(F)F)c2)CC1 [compound 156] | + (“+” stands for 50-80% inhibition) |  |
| N#Cc1ccc(C(=O)N2CCC(c3nc(C(=O)N4CCN(c5cccc(C(F)(F)F)c5)CC4)cs3)CC2)cc1 [compound 70] | ++ (“++” means 80-90%) |  |
| O=C(c1csc(C2CCN(C(=O)C3COc4ccccc4O3)CC2)n1)N1CCN(c2cccc(C(F)(F)F)c2)CC1 (stereo not drawn) [compound 217] | +++ (“+++” stands for 90-100% inhibition) |  |
| Cc1cc2nc(NC(=O)Cc3nc(C4CCN(C(=O)c5ccccc5OC(F)(F)F)CC4)sc3C)[nH]c2cc1C [compound 106] | + (“+” stands for 50-80% inhibition) |  |
| CC(C)(C)OC(=O)N1CCC(C(=O)N2CCN(c3cccc(C(F)(F)F)c3)CC2)CC1 [compound 125] | + (“+” stands for 50-80% inhibition) |  |
| COc1ccccc1N1CCN(c2nc(C(=O)N3CCN(c4cccc(C(F)(F)F)c4)CC3)cs2)CC1 [compound 65] | ++ (“++” means 80-90%) |  |
| O=C(c1csc(C2CCN(S(=O)(=O)Cc3ccccc3)CC2)n1)N1CCN(c2cccc(C(F)(F)F)c2)CC1 [compound 198] | + (“+” stands for 50-80% inhibition) |  |
| O=C(c1csc(N2CCN(c3ccc(F)cc3)CC2)n1)N1CCN(c2cccc(C(F)(F)F)c2)CC1 [compound 69] | ++ (“++” means 80-90%) |  |
| CN(C(=O)c1csc(C2CCN(C(=O)c3ccccc3OC(F)(F)F)CC2)n1)C(CN1CCOCC1)c1ccccc1 (stereo not drawn) [compound 147] | + (“+” stands for 50-80% inhibition) |  |
